Data taken from ChEMBL document CHEMBL1144061, “Biologically active triterpene saponins from callus tissue of Polygala amarella” (J Nat Prod, 1999).

Experiments:
[1] = Cytotoxicity against human granulocytes upto 100 ug/mL
[2] = Induction of human granulocyte phagocytosis at 10 to 100 ug/mL; type: functional

For `C[C@H]1O[C@@H](OC(=O)[C@]23CCC(C)(C)C[C@H]2C2=CC[C@@H]4[C@@]5(C)C[C@H](O)C(O[C@@H]6O[C@H](CO)[C@@H](O)[C@H](O)[C@H]6O)[C@@](C)(C(=O)O)[C@@H]5CC[C@@]4(C)[C@]2(CO)CC3)[C@H](O[C@@H]2O[C@H](C)[C@H](O[C@@H]3OC[C@@H](O)[C@H](O[C@@H]4O[C@H](CO)[C@H](O)[C@H](O)[C@H]4O)[C@H]3O)[C@@H](O)[C@H]2O)[C@@H](O[C@@H]2O[C@H](CO)[C@@H](O)[C@H](O)[C@H]2O)[C@H]1O` (some centres not stated), the Activity [1] was “Non-toxic” and the Activity [2] was 60%.
